The results in this text go back to patent US8895613B2 (priority 2013, dated 2014).

The target in assay [1] is neuraminidase of influenza virus A/California/04/09 (Influenza A virus, UniProt C3W5S3). The assay is classed as biochemical. The settings on record: for IC50: read-out: neuraminidase activity IC50.
In assay [2] the test system is virus strain Ia/California/07/09 (H1N1). Nature of the assay: microbe, parasite or virus in culture. The assay is classed as cell-based, influenza virus Ia/California/07/09 (H1N1) in MDCK cells. The settings on record: for IC50: Influenza A virus, H1N1, MDCK.
In assay [3] the test system is highly pathogenic strain Ia/duck/MN/1525/81 (H5N1). Nature of the assay: microbe, parasite or virus in culture. The assay is classed as cell-based, influenza virus Ia/duck/MN/1525/81 (H5N1) in MDCK cells. The settings on record: for IC50: Influenza A virus, H5N1, MDCK.
For assay [4], the target named is neuraminidase of influenza virus A/California/07/09 (H1N1) (Influenza A virus, UniProt C3W6G3). The assay is classed as biochemical. The settings on record: read-out: IC50, nM (number of experiments).
In assay [5] the target is neuraminidase of influenza virus A/Aichi/2/69 (H3N2) (Influenza A virus, UniProt Q75VQ4). The format is biochemical. The settings on record: read-out: IC50, nM (number of experiments).
Assay [6] deals with neuraminidase of influenza virus B/Pert/211/2001 (197D) (Influenza B virus, UniProt Q3S340). The format is biochemical. The settings on record: read-out: IC50, nM (number of experiments).
Assay [7] addresses neuraminidase of influenza virus B/Brisbane/60/2008 (Influenza B virus, UniProt C0LT34). The format is biochemical. The settings on record: read-out: IC50, nM (number of experiments).
For assay [8], the system named is influenza virus A/Aichi/2/69 (H3N2). More on the design: species or system mice. The settings on record: mouse, in vivo; for efficiency of treating influenza pneumonia in mice: po, 25 mg/kg/day.

In the case of `CCC(CC)O[C@@H]1C=C(C(=O)OCCc2ccccc2)C[C@H](NC(=N)N)[C@H]1NC(=O)C(F)F` [1.10, 2-phenylethyl (3R,4R,5S)-5-guanidino-4-(2,2-difluoroacetamido)-3-(pentan-3-yloxy)cyclohex-1-enecarboxylate], in assay [1], the IC50 (in general, the point on the concentration scale where inhibition reaches its midpoint) is under 1 nM.

As to `CC(=O)NC1C(NC(=N)N)C=C(C(=O)O)OC1C(O)C(O)CO` [Zan, 5-Acetamido-2,3-didehydro-3,4,5-trideoxy-4-guanidino-alpha-D-glycero-D-galacto-2-nonulopyranosonic acid, reference compound], the values for the half-maximal inhibitory concentration (IC50) in assay [2] and in assay [3] were 16 µM and 51.2 µM, respectively.

On to `CCC(CC)O[C@@H]1C=C(C(=O)O)C[C@H](NC(=N)N)[C@H]1NC(=O)CF` [1.1, (3R,4R,5S)-5-guanidino-4-fluoroacetamido-3-(pentan-3-yloxy)cyclohex-1-enecarboxylic acid], for which the 50% inhibitory concentration (IC50) in assay [4] is 0.18 nM. The IC50 in assay [5] was 0.69 nM. Also, in assay [6], the IC50 turned out to be 2.08 nM. Also, in assay [1], the “times more active than A2” value is recorded as 4 and the “times more active than A4” value was 400. Moreover, in assay [2], the “more active than Oseltamivir carboxylate (A2) by factor” value turned out to be 13, the “more active than Zanamivir (Zan) by factor” value stood at 20 and the IC50 stood at 0.78 µM. Further, the half-inhibitory concentration (IC50) in assay [7] stood at 1.27 nM. In addition, in assay [3], the “activity higher than that of Oseltamivir carboxylate, times” value is reported as 24; the “activity higher than that of Zanamivir (Zan), times” value is listed as 16; half-maximal inhibition (IC50) was put at 3.2 µM.

For the molecule `CCOC(=O)C1=C[C@@H](OC(CC)CC)[C@H](NC(C)=O)[C@@H](N)C1` [Tamiflu, reference compound], in assay [8], the “death of treated animals by the time the last animal of virus control group died” value is on record as “prevented completely” and the “weight loss of treated animals” value is “did not lose weight”.

On to `CCOC(=O)C1=C[C@@H](OC(CC)CC)[C@H](NC(=O)C(F)F)[C@@H](NC(=N)N)C1` [1.6, ethyl (3R,4R,5S)-5-guanidino-4-difluoroacetamido-3-(pentan-3-yloxy)cyclohex-1-enecarboxylate], for which the “efficiency of treating influenza pneumonia in mice” value in assay [8] was “high efficiency”.

As for `CCOC(=O)C1=C[C@@H](OC(CC)CC)[C@H](NC(=O)CF)[C@@H](NC(=N)N)C1` [1.3, ethyl (3R,4R,5S)-5-guanidino-4-fluoroacetamido-3-(pentan-3-yloxy)cyclohex-1-enecarboxylate], in assay [8], the “efficiency of treating influenza pneumonia in mice” value is “high efficiency”.

Turning to `CCC(CC)O[C@@H]1C=C(C(=O)O)C[C@H](NC(=N)N)[C@H]1NC(=O)C(F)F` [1.4, (3R,4R,5S)-5-guanidino-4-difluoroacetamido-3-(pentan-3-yloxy)cyclohex-1-enecarboxylic acid], in assay [1], the “times more active than A2” value is recorded as 2.7 and the “times more active than A4” value came to 267.

Regarding `CCC(CC)O[C@@H]1C=C(C(=O)OC2CCCCC2)C[C@H](NC(=N)N)[C@H]1NC(=O)C(F)F` [1.9, 2-cyclohexyl (3R,4R,5S)-5-guanidino-4-(2,2-difluoroacetamido)-3-(pentan-3-yloxy)cyclohex-1-enecarboxylate], in assay [1], the 50% inhibitory concentration (IC50) was under 1 nM.

Turning to `CCC(CC)O[C@@H]1C=C(C(=O)OCCOC)C[C@H](NC(=N)N)[C@H]1NC(=O)C(F)F` [1.12, 2-methoxyethyl (3R,4R,5S)-5-guanidino-4-(2,2-difluoroacetamido)-3-(pentan-3-yloxy)cyclohex-1-enecarboxylate], the IC50 in assay [1] is under 1 nM.

`CCC(CC)O[C@@H]1C=C(C(=O)O)C[C@H](N)[C@H]1NC(C)=O` [A2, (3R,4R,5S)-5-amino-4-acetamido-3-(pentan-3-yloxy)cyclohex-1-enecarboxylic acid, reference compound]: the 50% inhibitory concentration (IC50) in assay [2] was determined as 9.9 µM; in assay [3], 77.5 µM.

Turning to `CCC(CC)O[C@@H]1C=C(C(=O)OCCc2cccnc2)C[C@H](NC(=N)N)[C@H]1NC(=O)C(F)F` [1.11, 2-pyridin-3-ylethyl (3R,4R,5S)-5-guanidino-4-(2,2-difluoroacetamido)-3-(pentan-3-yloxy)cyclohex-1-enecarboxylate], in assay [1], the IC50 is under 1 nM.
